Measurements taken from the NIST ThermoML archive (doi:10.1016/j.fluid.2016.02.011).

Tests used:
[1] = refractive index (Na D-line) (dimensionless); xn = mol fraction of the nth substance listed; conditions: 100 kPa, Liquid, minimum deviations angle, x1 = 1
[2] = refractive index (Na D-line) (dimensionless); conditions: 100 kPa, Liquid, minimum deviations angle

CCCCCC[n+]1ccn(C)c1.O=S(=O)([N-]S(=O)(=O)C(F)(F)F)C(F)(F)F + Brc1ccccc1
[1]
Conditions	refractive index
282.99 K	1.4329
284.26 K	1.4324
285.8 K	1.432
286.91 K	1.4317
288.05 K	1.4313
289.17 K	1.431
290.22 K	1.4307
291.28 K	1.4304
292.38 K	1.4301
293.39 K	1.4298

CCCCCC[n+]1ccn(C)c1.O=S(=O)([N-]S(=O)(=O)C(F)(F)F)C(F)(F)F
[2]
Conditions	refractive index
282.99 K	1.4329
284.26 K	1.4324
285.8 K	1.432
286.91 K	1.4317
288.05 K	1.4313
289.17 K	1.431
290.22 K	1.4307
291.28 K	1.4304
292.38 K	1.4301
293.39 K	1.4298

Brc1ccccc1 [bromobenzene]
[2]
Conditions	refractive index
283 K	1.5612
284.4 K	1.5605
285.75 K	1.5598
286.96 K	1.5591
287.98 K	1.5585
288.99 K	1.558
290.11 K	1.5574
291.22 K	1.5568
292.32 K	1.5563
293.32 K	1.5557
